Experimental data as given in publication PMC5537869, “Role of Zucchini and Its Distinctive Components in the Modulation of Degenerative Processes: Genotoxicity, Anti-Genotoxicity, Cytotoxicity and Apoptotic Effects” (Nutrients, 2017).
“And” between values parts separate entries of the source, which are not always exact repeats. Equal entries are not always repeated.

How the values were obtained:
[1] = system: Drosophila melanogaster transheterozygous larvae; assay: Genotoxicity (single treatment), Drosophila wing spot test (SMART); assay type: in vivo; set-up: key to Mann-Whitney Test: n.s.: non-significant; conditions: for Mann-Whitney Test: vs negative control
Procedure: (§1) The principles and basic procedures for the Drosophila wing spot test have been described by Graf et al., and in previous works of our group. Two strains of flies carrying wing genetic markers on the left arm of chromosome 3: multiple wing […] used. The transheterozygous larvae were obtained by crossing […] (Third Multiple 3), Bd^S(Beaded […]) virgin females. Hybrid eggs derived from crossing optimally fertile flies were collected over an 8 h period. […] Concurrent negative controls with the solvent alone (water) and positive controls with hydrogen peroxide (120 mM) were also run. Anti-genotoxicity tests were carried out by mixing the mutagen (hydrogen peroxide, 120 mM) with the compounds solution. After emergence, adult flies were collected from the treatment vials and stored in 70% ethanol. The wings of the flies were removed under a stereomicroscope using a pair of entomological tweezers, similar number of males and females-wings were mounted in Faure's solution on microscope slides and inspected, under 400× magnification, for the presence of clones of cells. The mutant clones were classified into three types: […] The appearance of twin spots indicated the recombinogenic activity of the chemotherapeutic agent (Figure 1). The frequencies of spots per fly of treated series were compared with its corresponding negative control series (water) to analyze Somatic Mutation and Recombination Test (SMART) data. For maximum power, statistical analyses were done exclusively for the total number of spots recovered. The non-parametric U test of Mann, Whitney and Wilcoxon was used to avoid weak positive and inconclusive results on SMART and to achieve a well-defined statistical diagnosis whether a given treatment should be regarded as genotoxic or not. The inhibition percentages (IP) were calculated using the total spots per wing with the following formula [16, 36]: IP = ((Genotoxine alone - Genotoxine plus active compound)/Genotoxine alone) × 100

[2] = system: Drosophila melanogaster transheterozygous larvae; assay: Anti-genotoxicity (combined treatment with hydrogen peroxide 120 mM), Drosophila wing spot test (SMART); assay type: in vivo; set-up: key to Mann-Whitney Test: n.s.: non-significant; conditions: combined treatment with H2O2 120 mM; for Mann-Whitney Test: vs negative control
Procedure: as §1

HL60 cells [3] = assay: Cytotoxicity assay, trypan blue exclusion; assay type: cell-based, human; conditions: for cytotoxic effect (tumoral viability): HL60, 72 h, trypan blue exclusion, at the tested concentrations
Procedure: Therefore, all the cells that exclude the dye are viable. Non-viable cells stained purple-violet, whereas viable ones remained unstained. Trypan blue was added to cell cultures at a 1:1 ratio, and 20 μL of cell suspension was loaded into a Neubauer chamber. The cells were counted under an inverted microscope at 100× magnification. […] Curves are expressed as survival percentage with respect to controls growing at 72 h. All data represent the average of at least three independent experiments.

HL60 cells [4] = assay: Nucleosomal DNA fragmentation assay; assay type: cell-based, human; conditions: HL60, 5 h, same concentrations as in the cytotoxicity assay, agarose gel
Procedure: The HL60 tumoral cell line was used with the aim of analyse the apoptotic induction. […] A non-treated cells control was included for each experiment. For DNA fragmentation, treated cells were collected, were centrifuged at 4000 rpm for 5 min and washed with PBS. […] The agarose gels were run at 50 V for 90 min in TBE (Tris/Borate/EDTA) buffer and then observed and photographed under UV light. For Annexin V-PI test, Annexin V Apoptosis Detection Kit ([…] Biotech S.L., Cordoba, Spain) was used. Briefly, cells were resuspended in 100 μL of Binding buffer solution 1× and subsequently, 5 μL AnnexinV-FITC (Fluorescein isothiocyanate) and 10 μL propidium iodide were added, and samples were incubated for 10 min at room temperature in darkness, and flow cytometry (Beckman Coulter Inc., Brea, CA, USA) was then used to analyze the rate of apoptosis.

OO [H2O2, hydrogen peroxide, reference compound]
Large Spots (>2 Cells) m = 5 ([1]; positive control alone, 120 mM): 0.13 (5) clones per wing | Small Spots (1–2 Cells) m = 2 ([1]; positive control alone, 120 mM): 0.38 (15) clones per wing | Total Spots m = 2 ([1]; positive control alone, 120 mM): 0.52 clones per wing and 0.52 (21) clones per wing | Twin Spots m = 5 ([1]; positive control alone, 120 mM): 0.03 (1) clones per wing | Mann-Whitney Test ([1]; positive control alone, 120 mM): * (*: significant (p ≤ 0.05))

O=C1OC(C(O)CO)C(=O)C1=O (centres unmarked) [DHA, dehydroascorbic acid]
Large Spots (>2 Cells) m = 5 ([1]; single treatment, 0.003 mM): 0.03 (1) clones per wing | Small Spots (1–2 Cells) m = 2 ([1]; single treatment, 0.003 mM): 0.10 (4) clones per wing | Total Spots m = 2 ([1]; single treatment, 0.003 mM): 0.13 (5) clones per wing | Twin Spots m = 5 ([1]; single treatment, 0.003 mM): 0.00 (0) clones per wing | Mann-Whitney Test ([1]; single treatment, 0.003 mM): n.s. | Large Spots (>2 Cells) m = 5 ([1]; single treatment, 0.107 mM): 0.03 (1) clones per wing | Small Spots (1–2 Cells) m = 2 ([1]; single treatment, 0.107 mM): 0.15 (6) clones per wing | Total Spots m = 2 ([1]; single treatment, 0.107 mM): 0.18 (7) clones per wing | Twin Spots m = 5 ([1]; single treatment, 0.107 mM): 0.00 (0) clones per wing | Mann-Whitney Test ([1]; single treatment, 0.107 mM): n.s. | Total Spots m = 2 ([1]; single treatment, 0.107 mM, listed as dehydroascorbic acid): 0.18 clones per wing | Large Spots (>2 Cells) m = 5 ([2]; 0.003 mM): 0.00 (0) clones per wing | Small Spots (1–2 Cells) m = 2 ([2]; 0.003 mM): 0.08 (3) clones per wing | Total Spots m = 2 ([2]; 0.003 mM): 0.08 (3) clones per wing | Twin Spots m = 5 ([2]; 0.003 mM): 0.00 (0) clones per wing | Mann-Whitney Test ([2]; 0.003 mM): n.s. | Large Spots (>2 Cells) m = 5 ([2]; 0.107 mM): 0.03 (1) clones per wing | Small Spots (1–2 Cells) m = 2 ([2]; 0.107 mM): 0.10 (4) clones per wing | Total Spots m = 2 ([2]; 0.107 mM): 0.13 (5) clones per wing | Twin Spots m = 5 ([2]; 0.107 mM): 0.00 (0) clones per wing | Mann-Whitney Test ([2]; 0.107 mM): n.s. | cytotoxicity (HL60 cells [3]; HL60, 0.7 mM): did not show cytotoxicity | cytotoxic effect (tumoral viability) (HL60 cells [3]): slight cytotoxic activities | internucleosomal DNA fragmentation ladder pattern (HL60 cells [4]): did not show any internucleosomal fragmentation ladder pattern

CC1=C[C@H](O)CC(C)(C)[C@H]1/C=C/C(C)=C/C=C/C(C)=C/C=C/C=C(C)/C=C/C=C(C)/C=C/C1=C(C)C[C@@H](O)CC1(C)C [Lutein, lutein]
Large Spots (>2 Cells) m = 5 ([1]; single treatment, 0.039 μM): 0.08 (3) clones per wing | Small Spots (1–2 Cells) m = 2 ([1]; single treatment, 0.039 μM): 0.15 (6) clones per wing | Total Spots m = 2 ([1]; single treatment, 0.039 μM): 0.23 (9) clones per wing | Twin Spots m = 5 ([1]; single treatment, 0.039 μM): 0.00 (0) clones per wing | Mann-Whitney Test ([1]; single treatment, 0.039 μM): n.s. | Large Spots (>2 Cells) m = 5 ([1]; single treatment, 0.615 μM): 0.08 (3) clones per wing | Small Spots (1–2 Cells) m = 2 ([1]; single treatment, 0.615 μM): 0.33 (13) clones per wing | Total Spots m = 2 ([1]; single treatment, 0.615 μM): 0.45 (18) clones per wing | Twin Spots m = 5 ([1]; single treatment, 0.615 μM): 0.05 (2) clones per wing | Mann-Whitney Test ([1]; single treatment, 0.615 μM): n.s. | Total Spots m = 2 ([1]; single treatment, 0.615 μM, listed as lutein): 0.45 clones per wing | Large Spots (>2 Cells) m = 5 ([2]; 0.039 μM): 0.06 (2) clones per wing | Small Spots (1–2 Cells) m = 2 ([2]; 0.039 μM): 0.06 (2) clones per wing | Total Spots m = 2 ([2]; 0.039 μM): 0.13 (4) clones per wing | Twin Spots m = 5 ([2]; 0.039 μM): 0.00 (0) clones per wing | Mann-Whitney Test ([2]; 0.039 μM): n.s. | Large Spots (>2 Cells) m = 5 ([2]; 0.615 μM): 0.16 (5) clones per wing | Small Spots (1–2 Cells) m = 2 ([2]; 0.615 μM): 0.25 (8) clones per wing | Total Spots m = 2 ([2]; 0.615 μM): 0.47 (15) clones per wing | Twin Spots m = 5 ([2]; 0.615 μM): 0.06 (2) clones per wing | Mann-Whitney Test ([2]; 0.615 μM): * (*: significant (p ≤ 0.05)) | Total Spots m = 2 ([2]; 0.615 μM, listed as lutein): 0.47 clones per wing | cytotoxic effect (tumoral viability) (HL60 cells [3]): did not observe any cytotoxic effect | internucleosomal DNA fragmentation ladder pattern (HL60 cells [4]): did not show any internucleosomal fragmentation ladder pattern
